According to PubChem BioAssay (NCI):
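How tested: cells in 96-well plates exposed to compound for 48 hours at five concentrations. GI50: concentration for 50% inhibition of growth. TGI: concentration producing complete growth inhibition.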

How the values were obtained:
Experiment in all cases: NCI tumour cell line growth inhibition, 48 h; in the data active means GI50 below about 0.43 µM; inactive means the rest
OVCAR-4 ovarian = test system: OVCAR-4 ovarian
A549 NSCLC = test system: A549 NSCLC
SR leukemia = test system: SR leukemia
SK-MEL-2 melanoma = test system: SK-MEL-2 melanoma
M14 melanoma = test system: M14 melanoma
MALME-3M melanoma = test system: MALME-3M melanoma
HOP-92 NSCLC = test system: HOP-92 NSCLC
SK-MEL-5 melanoma = test system: SK-MEL-5 melanoma
NCI-H460 lung = test system: NCI-H460 lung
PC-3 prostate = test system: PC-3 prostate
EKVX NSCLC = test system: EKVX NSCLC
NCI/ADR-RES ovarian = test system: NCI/ADR-RES ovarian
SN12C renal = test system: SN12C renal
UACC-62 melanoma = test system: UACC-62 melanoma
HCT-15 colon = test system: HCT-15 colon
SNB-75 CNS = test system: SNB-75 CNS
UACC-257 melanoma = test system: UACC-257 melanoma
SF-268 CNS = test system: SF-268 CNS
HS 578T breast = test system: HS 578T breast
RXF 393 renal = test system: RXF 393 renal
U251 CNS = test system: U251 CNS
MDA-MB-435 = test system: MDA-MB-435
ACHN renal = test system: ACHN renal
IGROV1 ovarian = test system: IGROV1 ovarian
TK-10 renal = test system: TK-10 renal
HL-60(TB) leukemia = test system: HL-60(TB) leukemia
NCI-H522 lung = test system: NCI-H522 lung
BT-549 breast = test system: BT-549 breast
RPMI-8226 leukemia = test system: RPMI-8226 leukemia
COLO 205 colon = test system: COLO 205 colon
MDA-MB-231 breast = test system: MDA-MB-231 breast
NCI-H226 lung = test system: NCI-H226 lung
OVCAR-5 ovarian = test system: OVCAR-5 ovarian
T-47D breast = test system: T-47D breast
SK-OV-3 ovarian = test system: SK-OV-3 ovarian
MOLT-4 leukemia = test system: MOLT-4 leukemia
HCT-116 colon = test system: HCT-116 colon
UO-31 renal = test system: UO-31 renal
K-562 leukemia = test system: K-562 leukemia
CCRF-CEM leukemia = test system: CCRF-CEM leukemia
LOX IMVI melanoma = test system: LOX IMVI melanoma
KM12 colon = test system: KM12 colon
SNB-19 CNS = test system: SNB-19 CNS
MCF7 breast = test system: MCF7 breast
786-0 renal = test system: 786-0 renal
NCI-H23 lung = test system: NCI-H23 lung
HOP-62 NSCLC = test system: HOP-62 NSCLC
HT29 colon = test system: HT29 colon
SK-MEL-28 melanoma = test system: SK-MEL-28 melanoma
OVCAR-3 ovarian = test system: OVCAR-3 ovarian
OVCAR-8 ovarian = test system: OVCAR-8 ovarian
SF-539 CNS = test system: SF-539 CNS
SW-620 colon = test system: SW-620 colon
HCC-2998 colon = test system: HCC-2998 colon
CAKI-1 renal = test system: CAKI-1 renal
A498 renal = test system: A498 renal
DU-145 prostate = test system: DU-145 prostate
SF-295 CNS = test system: SF-295 CNS

Cc1cc2c(-c3nc4ccccn4c3N)c(O)c(O)cc2c(O)c1-c1c(C)cc2c(-c3nc4ccccn4c3N)c(O)c(O)cc2c1O
6.03 µM: TGI (SK-OV-3 ovarian)
4.88 µM: TGI (NCI-H522 lung)
> 25 µM: TGI (OVCAR-4 ovarian) | TGI (A549 NSCLC) | TGI (SR leukemia) | TGI (M14 melanoma) | TGI (MALME-3M melanoma) | TGI (PC-3 prostate) | TGI (EKVX NSCLC) | TGI (NCI/ADR-RES ovarian) | TGI (SN12C renal) | TGI (HCT-15 colon) | TGI (SNB-75 CNS) | TGI (UACC-257 melanoma) | TGI (SF-268 CNS) | TGI (HS 578T breast) | TGI (U251 CNS) | TGI (MDA-MB-435) | TGI (ACHN renal) | TGI (IGROV1 ovarian) | TGI (TK-10 renal) | TGI (HL-60(TB) leukemia) | TGI (BT-549 breast) | TGI (RPMI-8226 leukemia) | TGI (COLO 205 colon) | TGI (MDA-MB-231 breast) | TGI (NCI-H226 lung) | TGI (OVCAR-5 ovarian) | TGI (T-47D breast) | TGI (MOLT-4 leukemia) | TGI (HCT-116 colon) | TGI (UO-31 renal) | TGI (K-562 leukemia) | TGI (CCRF-CEM leukemia) | TGI (LOX IMVI melanoma) | TGI (KM12 colon) | TGI (SNB-19 CNS) | TGI (MCF7 breast) | TGI (786-0 renal) | TGI (NCI-H23 lung) | TGI (HOP-62 NSCLC) | TGI (HT29 colon) | TGI (SK-MEL-28 melanoma) | TGI (OVCAR-3 ovarian) | TGI (OVCAR-8 ovarian) | TGI (SW-620 colon) | TGI (HCC-2998 colon)
2.29 µM: TGI (HOP-92 NSCLC)
7.05 µM: TGI (UACC-62 melanoma)
23.4 µM: TGI (SK-MEL-2 melanoma)
20.9 µM: TGI (SF-539 CNS)
3.11 µM: TGI (NCI-H460 lung)
inactive: GI50 (OVCAR-4 ovarian) 4.85 µM | GI50 (A549 NSCLC) 0.688 µM | GI50 (SR leukemia) 1.96 µM | GI50 (SK-MEL-2 melanoma) 0.961 µM | GI50 (M14 melanoma) 1.18 µM | GI50 (MALME-3M melanoma) 0.81 µM | GI50 (HOP-92 NSCLC) 0.65 µM | GI50 (SK-MEL-5 melanoma) 0.554 µM | GI50 (PC-3 prostate) 0.692 µM | GI50 (EKVX NSCLC) 0.965 µM | GI50 (NCI/ADR-RES ovarian) 4.49 µM | GI50 (SN12C renal) 0.82 µM | GI50 (UACC-62 melanoma) 0.723 µM | GI50 (HCT-15 colon) 0.58 µM | GI50 (SNB-75 CNS) 1.02 µM | GI50 (UACC-257 melanoma) 2.9 µM | GI50 (SF-268 CNS) 0.653 µM | GI50 (HS 578T breast) 0.797 µM | GI50 (RXF 393 renal) 0.682 µM | GI50 (MDA-MB-435) 0.716 µM | GI50 (ACHN renal) 1.63 µM | GI50 (IGROV1 ovarian) 1.36 µM | GI50 (TK-10 renal) 1.51 µM | GI50 (HL-60(TB) leukemia) 1.64 µM | GI50 (NCI-H522 lung) 0.625 µM | GI50 (RPMI-8226 leukemia) 0.661 µM | GI50 (COLO 205 colon) 1.07 µM | GI50 (MDA-MB-231 breast) 3.11 µM | GI50 (NCI-H226 lung) 1.44 µM | GI50 (OVCAR-5 ovarian) 1.69 µM | GI50 (T-47D breast) 0.502 µM | GI50 (SK-OV-3 ovarian) 0.805 µM | GI50 (MOLT-4 leukemia) 1.01 µM | GI50 (UO-31 renal) 1.12 µM | GI50 (K-562 leukemia) 1.02 µM | GI50 (CCRF-CEM leukemia) 0.497 µM | GI50 (LOX IMVI melanoma) 0.582 µM | GI50 (SNB-19 CNS) 0.661 µM | GI50 (MCF7 breast) 0.606 µM | GI50 (786-0 renal) 2.82 µM | GI50 (NCI-H23 lung) 0.543 µM | GI50 (HOP-62 NSCLC) 1.15 µM | GI50 (HT29 colon) 0.979 µM | GI50 (SK-MEL-28 melanoma) 1.16 µM | GI50 (OVCAR-3 ovarian) 1.36 µM | GI50 (OVCAR-8 ovarian) 0.975 µM | GI50 (SF-539 CNS) 0.707 µM | GI50 (SW-620 colon) 0.988 µM | GI50 (HCC-2998 colon) 1.59 µM
1.66 µM: TGI (SK-MEL-5 melanoma)
active: GI50 (NCI-H460 lung) 0.103 µM | GI50 (U251 CNS) 0.273 µM | GI50 (BT-549 breast) 0.145 µM | GI50 (HCT-116 colon) 0.163 µM | GI50 (KM12 colon) 0.227 µM
18 µM: TGI (RXF 393 renal)

O=C1c2ccccc2-c2c1c1ccccc1c(=O)n2CCCNCCn1c2c(c3ccccc3c1=O)C(=O)c1ccccc1-2
48.1 µM: TGI (NCI-H522 lung)
inactive: GI50 (OVCAR-4 ovarian) 11.5 µM | GI50 (A549 NSCLC) 13.5 µM | GI50 (SK-MEL-2 melanoma) 28.2 µM | GI50 (M14 melanoma) 2.8 µM | GI50 (MALME-3M melanoma) 22.1 µM | GI50 (HOP-92 NSCLC) 14.1 µM | GI50 (NCI-H460 lung) 3.02 µM | GI50 (PC-3 prostate) 2.43 µM | GI50 (EKVX NSCLC) 12.5 µM | GI50 (NCI/ADR-RES ovarian) 11.3 µM | GI50 (SN12C renal) 10.9 µM | GI50 (UACC-62 melanoma) 5.04 µM | GI50 (HCT-15 colon) 2.74 µM | GI50 (SNB-75 CNS) 11.8 µM | GI50 (UACC-257 melanoma) 17.9 µM | GI50 (SF-268 CNS) 7.6 µM | GI50 (HS 578T breast) 16.5 µM | GI50 (RXF 393 renal) 2.29 µM | GI50 (U251 CNS) 1.61 µM | GI50 (MDA-MB-435) 2.24 µM | GI50 (ACHN renal) 12.3 µM | GI50 (CAKI-1 renal) 14.3 µM | GI50 (IGROV1 ovarian) 2.63 µM | GI50 (TK-10 renal) 3.8 µM | GI50 (HL-60(TB) leukemia) 34.6 µM | GI50 (NCI-H522 lung) 14.6 µM | GI50 (BT-549 breast) 10.8 µM | GI50 (COLO 205 colon) 36.2 µM | GI50 (MDA-MB-231 breast) 2 µM | GI50 (NCI-H226 lung) 4.59 µM | GI50 (OVCAR-5 ovarian) 14.9 µM | GI50 (T-47D breast) 17.8 µM | GI50 (SK-OV-3 ovarian) 19.2 µM | GI50 (A498 renal) 12.7 µM | GI50 (DU-145 prostate) 1.89 µM | GI50 (HCT-116 colon) 1.05 µM | GI50 (K-562 leukemia) 19.2 µM | GI50 (KM12 colon) 2.32 µM | GI50 (SNB-19 CNS) 2.48 µM | GI50 (MCF7 breast) 3.47 µM | GI50 (786-0 renal) 1.98 µM | GI50 (NCI-H23 lung) 2.25 µM | GI50 (HOP-62 NSCLC) 9.69 µM | GI50 (HT29 colon) 2.42 µM | GI50 (SK-MEL-28 melanoma) 16 µM | GI50 (OVCAR-3 ovarian) 8.82 µM | GI50 (OVCAR-8 ovarian) 2.73 µM | GI50 (SF-539 CNS) 14.6 µM | GI50 (SW-620 colon) 2.23 µM | GI50 (SF-295 CNS) 7.77 µM
10.5 µM: TGI (PC-3 prostate)
25.3 µM: TGI (A498 renal) | TGI (HOP-62 NSCLC)
40.3 µM: TGI (MALME-3M melanoma)
27.2 µM: TGI (EKVX NSCLC)
21.1 µM: TGI (OVCAR-3 ovarian)
28.6 µM: TGI (BT-549 breast)
38 µM: TGI (SK-MEL-28 melanoma)
3.29 µM: TGI (U251 CNS)
9.25 µM: TGI (MDA-MB-231 breast)
17.3 µM: TGI (UO-31 renal)
64.6 µM: TGI (HS 578T breast)
24.9 µM: TGI (OVCAR-4 ovarian)
27.5 µM: TGI (SF-295 CNS)
28.7 µM: TGI (CAKI-1 renal)
3.16 µM: TGI (LOX IMVI melanoma)
32.2 µM: TGI (SNB-75 CNS) | TGI (IGROV1 ovarian)
20.7 µM: TGI (NCI-H226 lung)
10.9 µM: TGI (M14 melanoma)
16.6 µM: TGI (OVCAR-8 ovarian)
26.5 µM: TGI (SF-268 CNS)
10 µM: TGI (HT29 colon)
6.11 µM: TGI (MDA-MB-435)
12 µM: TGI (DU-145 prostate)
> 100 µM: TGI (COLO 205 colon) | TGI (SK-OV-3 ovarian) | TGI (KM12 colon) | TGI (SW-620 colon)
42.3 µM: TGI (K-562 leukemia)
22.9 µM: TGI (SN12C renal)
active: GI50 (LOX IMVI melanoma) 0.0855 µM
26.3 µM: TGI (A549 NSCLC)
19.3 µM: TGI (UACC-62 melanoma)
34.6 µM: TGI (T-47D breast)
17.6 µM: TGI (NCI-H460 lung)
96.9 µM: TGI (SK-MEL-2 melanoma)
13.9 µM: TGI (RXF 393 renal)
15.8 µM: TGI (TK-10 renal)
3.13 µM: TGI (HCT-116 colon)
25.9 µM: TGI (NCI/ADR-RES ovarian)
13 µM: TGI (HCT-15 colon)
11.6 µM: TGI (SNB-19 CNS) | TGI (NCI-H23 lung)
35 µM: TGI (UACC-257 melanoma)
13.8 µM: TGI (MCF7 breast)
28.1 µM: TGI (HOP-92 NSCLC) | TGI (OVCAR-5 ovarian)
27.8 µM: TGI (SF-539 CNS)
96.8 µM: TGI (HL-60(TB) leukemia)
9.64 µM: TGI (786-0 renal)
24.8 µM: TGI (ACHN renal)
